Data: ChEMBL document CHEMBL1159107, “Novel semisynthetic spin-labeled derivatives of podophyllotoxin with cytotoxic and antioxidative activity” (Bioorg Med Chem Lett, 2010)

Columns and labels:
HL-60 = test: Cytotoxicity against human HL60 cells after 48 hrs; assay type: functional, cell-based; conditions: HL-60, 48 h
Heart = test: Antioxidant activity in Sprague-Dawley rat heart assessed as inhibition of malonaldehyde; assay type: functional, tissue-based
Kidney = test: Antioxidant activity in Sprague-Dawley rat kidney assessed as inhibition of malonaldehyde; assay type: functional, tissue-based
RPMI-8226 = test: Cytotoxicity against human RPMI8226 cells after 48 hrs; assay type: functional, cell-based; conditions: RPMI-8226, 48 h
A549 = test: Cytotoxicity against human A549 cells after 48 hrs; assay type: functional, cell-based; conditions: A549, 48 h
Liver = test: Antioxidant activity in Sprague-Dawley rat liver assessed as inhibition of malonaldehyde; assay type: functional, tissue-based

Row | SMILES | IC50 (HL-60) [nM] | IC50 (Heart) [nM] | IC50 (Kidney) [nM] | IC50 (RPMI-8226) [nM] | IC50 (A549) [nM] | IC50 (Liver) [nM]
1 | COc1cc([C@@H]2c3cc4c(cc3[C@@H](NC(=O)[C@H](CCSC)NC(=O)OC3CC(C)(C)N([O])C(C)(C)C3)[C@H]3COC(=O)[C@H]23)OCO4)cc(OC)c1O | 670 | 5890 | 7550 | 480 | 420 | 6850
2 | COc1cc([C@@H]2c3cc4c(cc3[C@@H](NC(=O)[C@H](CC(C)C)NC(=O)OC3CC(C)(C)N([O])C(C)(C)C3)[C@H]3COC(=O)[C@H]23)OCO4)cc(OC)c1O | 160 | – | 8470 | 89 | 190 | 8850
3 | COc1cc([C@@H]2c3cc4c(cc3[C@@H](NC(=O)[C@@H](NC(=O)OC3CC(C)(C)N([O])C(C)(C)C3)C(C)O)[C@H]3COC(=O)[C@H]23)OCO4)cc(OC)c1O (some centres not stated) | 210 | 8790 | 7450 | 78 | 210 | 7120
4 | COc1cc([C@@H]2c3cc4c(cc3[C@@H](NC(=O)[C@H](C)NC(=O)OC3CC(C)(C)N([O])C(C)(C)C3)[C@H]3COC(=O)[C@H]23)OCO4)cc(OC)c1O | 220 | 6390 | 7680 | 260 | 120 | 7640
5 | COc1cc([C@@H]2c3cc4c(cc3[C@@H](NC(=O)CNC(=O)OC3CC(C)(C)N([O])C(C)(C)C3)[C@H]3COC(=O)[C@H]23)OCO4)cc(OC)c1O | 320 | 7190 | 8900 | 330 | 210 | 7470
6 | COc1cc([C@@H]2c3cc4c(cc3[C@@H](NC(=O)[C@@H](NC(=O)OC3CC(C)(C)N([O])C(C)(C)C3)C(C)C)[C@H]3COC(=O)[C@H]23)OCO4)cc(OC)c1O | 240 | 8040 | 8880 | 61 | 150 | 8690
7 | COc1cc([C@@H]2c3cc4c(cc3[C@@H](NC(=O)[C@H](Cc3ccccc3)NC(=O)OC3CC(C)(C)N([O])C(C)(C)C3)[C@H]3COC(=O)[C@H]23)OCO4)cc(OC)c1O | 210 | 7390 | 9630 | 90 | 210 | 6550
8 | COc1cc([C@@H]2c3cc4c(cc3[C@@H](O[C@@H]3O[C@@H]5CO[C@@H](C)O[C@H]5[C@H](O)[C@H]3O)[C@H]3COC(=O)[C@H]23)OCO4)cc(OC)c1O [ETOPOSIDE] | 420 | 40700 | 23800 | 140 | 290 | 43900
